The record followed here is patent publication US20230099344A1, “COMPOUNDS AND METHODS FOR THE TARGETED DEGRADATION OF IRAK-4” (Arvinas Operations, Inc., priority 2021, published 2023).

Common to all, as to format: cell-based
The test system of one assay is IL6. Nature of the assay: IL-1β stimulated IL6 inhibition assay in PBMC. The note with it: PBMC, human PBMCs, IL-1β stimulation, compound overnight, IL6 by MSD after 24 hrs; for IC50: Homo sapiens, 24 h, read-out: IL1β stim IL6 inhibition IC50; for Emax: read-out: IL1β stim IL6 inhibition Ymax. How it is done: (§1) IL-1β, LPS, or R848 Stimulated IL6 Inhibition and IL-1β Stimulated IL8 Inhibition Assay
(§2) Human PBMC cells were seeded at 2.0×10^6 cells/mL, treated with compound overnight, and dosed with the EC50 concentration of each stimulant (either IL-1B. LPS, or R848) was determined for each donor. After 24 hrs, media was collected and analyzed by MSD for IL6 and/or IL8 levels.

Another assay relates to IL8. Nature of the assay: IL-1β stimulated IL8 inhibition assay in PBMC. Conditions: human PBMCs, IL-1β stimulation, compound overnight, IL8 by MSD after 24 hrs; for IC50: read-out: IL1β stim IL8 inhibition IC50; for Emax: read-out: IL1β stim IL8 inhibition Ymax. How it is done:
as §1, §2

Assay [1] concerns the target T1, IRAK-4 (Homo sapiens, UniProt Q9NWZ3).
T1 sequence (Q9NWZ3 1-460): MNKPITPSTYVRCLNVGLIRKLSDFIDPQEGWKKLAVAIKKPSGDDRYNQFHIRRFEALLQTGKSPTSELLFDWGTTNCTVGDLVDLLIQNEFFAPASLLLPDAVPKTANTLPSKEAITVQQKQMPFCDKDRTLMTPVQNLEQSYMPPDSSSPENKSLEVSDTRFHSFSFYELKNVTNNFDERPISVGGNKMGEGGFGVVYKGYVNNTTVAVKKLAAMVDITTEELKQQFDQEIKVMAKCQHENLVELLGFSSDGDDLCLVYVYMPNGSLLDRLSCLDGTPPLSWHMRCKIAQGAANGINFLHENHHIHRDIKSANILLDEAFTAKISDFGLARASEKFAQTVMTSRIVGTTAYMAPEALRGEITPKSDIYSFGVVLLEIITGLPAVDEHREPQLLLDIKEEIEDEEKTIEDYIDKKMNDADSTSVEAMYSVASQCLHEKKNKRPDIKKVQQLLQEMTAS
The assay is described as follows: IRAK-4 ELISA, OCI-Ly10 degradation. Further details: endogenous in cells. The note with it: treated overnight; for Dmax: OCI-Ly10, OCI-Ly10 cells; for DC50: OCI-Ly10 cells. The essentials: (§3)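 Readout: IRAK-4 protein level in cell lysate, sandwich ELISA. Cells: OCI-Ly10 at 1×10^6/ml or PBMC at 2×10^6/ml, compound added same day, overnight incubation.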

Assay [2] addresses T1, IRAK-4. Nature of the assay: IRAK-4 ELISA, PBMC degradation. Further details: endogenous in cells; host or cells: PBMC. The note with it: treated overnight. In a few lines:
as §3
Background: ELISA stands for enzyme-linked immunosorbent assay.

Turning to `O=C1CCC(N2C(=O)c3ccc(N4CC(CN5CCC(N6Cc7cc(NC(=O)c8cnn9cccnc89)c(OCC8CC8)cc7C6=O)CC5)C4)cc3C2=O)C(=O)N1` (stereo not drawn) [Example 86], in the assay with IL6, the IC50 was < 0.01 µM and the Emax was ≥ 90%. Besides, in the assay on IL8, the IC50 lay within 0.01 to 0.05 µM and the Emax lay within 70 to 80%. In addition, at IRAK-4 [1], the greatest degradation seen (Dmax) is ≥ 90% and the DC50 was < 0.01 µM. At IRAK-4 [2], the DC50 lay in the range of 0.001 to 0.005 µM; the Dmax is ≥ 90%; the “PBMC DC90” value was “B (B represents a DC90 value ≥10.0 nM and <25.0 nM)”.
Consider `O=C1CCC(N2C(=O)c3ccc(N4CC(CN5CCC(N6Cc7cc(NC(=O)c8cnn9cccnc89)c(N8CCOCC8)cc7C6=O)CC5)C4)cc3C2=O)C(=O)N1` (stereo not drawn) [Example 96], for which, in the assay with IL6, the half-inhibitory concentration (IC50) lay within 0.05 to 0.1 µM and the Emax is ≥ 90%. Also, in the assay on IL8, the 50% inhibitory concentration (IC50) was ≥ 0.1 µM and the Emax was < 70%. Moreover, on IRAK-4 [1], the Dmax was ≥ 90% and the DC50 lay in the range of 0.01 to 0.05 µM. In addition, on IRAK-4 [2], the 50% degradation concentration (DC50) fell in the range of 0.001 to 0.005 µM; the Dmax was ≥ 90%; the “PBMC DC90” value was “B (B represents a DC90 value ≥10.0 nM and <25.0 nM)”.
As to `O=C1CCC(N2C(=O)c3ccc(N4CC(N5CCC(N6Cc7cc(NC(=O)c8cnn9cccnc89)c(N8CCC(N9CCC9)CC8)cc7C6=O)CC5)C4)cc3C2=O)C(=O)N1` (stereo not drawn) [Example 99], in the assay on IL6, the half-inhibitory concentration (IC50) is 0.01 to 0.05 µM and the Emax was ≥ 90%. Moreover, in the assay with IL8, the IC50 lay within 0.05 to 0.1 µM and the Emax lay in the range of 80 to 90%. At IRAK-4 [1], the greatest degradation seen (Dmax) was ≥ 90% and the DC50 is < 0.01 µM. Further, at IRAK-4 [2], the 50% degradation concentration (DC50) lay in the range of 0.005 to 0.01 µM, the greatest degradation seen (Dmax) lay within 80 to 90% and the “PBMC DC90” value is “D (D represents a DC90 value ≥50 nM)”.
Regarding `O=C1CCC(N2Cc3cc(OCCOCCN4CCC(n5cc6cc(NC(=O)c7cnn8cccnc78)c(OCC7CC7)cc6n5)CC4)ccc3C2=O)C(=O)N1` (stereo not drawn) [Example 119], in the assay with IL6, the half-inhibitory concentration (IC50) is < 0.01 µM and the Emax was ≥ 90%. Also, in the assay on IL8, the concentration for half-maximal inhibition (IC50) was in the range of 0.01 to 0.05 µM and the Emax was in the range of 80 to 90%. At IRAK-4 [1], the greatest degradation seen (Dmax) lay within 80 to 90% and the 50% degradation concentration (DC50) is < 0.01 µM. Also, at IRAK-4 [2], the DC50 was < 0.001 µM, the Dmax is ≥ 90% and the “PBMC DC90” value is given as “A (A represents a DC90 value <10.0 nM)”.
For `O=C1CCC(N2Cc3cc(OCCN4CCC(n5cc6cc(NC(=O)c7cnn8cccnc78)c(OCC7CC7)cc6n5)CC4)ccc3C2=O)C(=O)N1` (stereo not drawn) [Example 122], in the assay with IL6, the 50% inhibitory concentration (IC50) is 0.01 to 0.05 µM and the Emax was ≥ 90%. In addition, in the assay on IL8, the half-inhibitory concentration (IC50) fell in the range of 0.05 to 0.1 µM and the Emax was 80 to 90%. At IRAK-4 [1], the greatest degradation seen (Dmax) is < 70% and the DC50 was < 0.01 µM. Moreover, at IRAK-4 [2], the 50% degradation concentration (DC50) fell in the range of 0.001 to 0.005 µM; the Dmax was < 70%; the “PBMC DC90” value was “B (B represents a DC90 value ≥10.0 nM and <25.0 nM)”.
In the case of `O=C1CCC(N2Cc3cc(CCN4CCC(n5cc6cc(NC(=O)c7cnn8cccnc78)c(OCC7CC7)cc6n5)CC4)ccc3C2=O)C(=O)N1` (stereo not drawn) [Example 126], in the assay with IL6, the half-maximal inhibitory concentration (IC50) is < 0.01 µM and the Emax was ≥ 90%. For the same compound, in the assay on IL8, the 50% inhibitory concentration (IC50) is < 0.01 µM and the Emax is < 70%. Moreover, on IRAK-4 [1], the Dmax was ≥ 90% and the DC50 is < 0.01 µM. In addition, at IRAK-4 [2], the DC50 lay in the range of 0.001 to 0.005 µM; the greatest degradation seen (Dmax) was < 70%; the “PBMC DC90” value was “B (B represents a DC90 value ≥10.0 nM and <25.0 nM)”.
In the case of `O=C1CCC(N2Cc3cc(N4CC(CN5CCC(n6cc7cc(NC(=O)c8cnn9cccnc89)c(OCC8CC8)cc7n6)CC5)C4)ccc3C2=O)C(=O)N1` (stereo not drawn) [Example 134], in the assay on IL6, the IC50 was < 0.01 µM and the Emax is ≥ 90%. Also, in the assay on IL8, the 50% inhibitory concentration (IC50) was 0.01 to 0.05 µM and the Emax fell in the range of 70 to 80%. For the same compound, on IRAK-4 [1], the greatest degradation seen (Dmax) is ≥ 90% and the DC50 is < 0.01 µM. Further, at IRAK-4 [2], the DC50 is < 0.001 µM, the greatest degradation seen (Dmax) was ≥ 90% and the “PBMC DC90” value is “A (A represents a DC90 value <10.0 nM)”.

What is called IC50 is the concentration needed to halve the response being measured. As usually defined, the Dmax is the largest share of the target that was removed. The low end stands for shallow degradation, the high end for deep degradation. In general, DC50 refers to the midpoint of the concentration-degradation curve. Read a high DC50 as a less potent degrader.
